Some results are limits rather than exact numbers.

Data set [1] is described as follows: High-temperature stability of lyophilized products comprising different ratios of glucose/dextran 40. It is filed as physicochemical. Conditions: API, no storage time given.
Data set [2] in a line: Measurement of related substances and placement stability of lyophilized formulation (accelerated and long-term conditions). The format is physicochemical. The settings on record: API, no storage item given. The procedure:
The above intermediate solution was lyophilized to prepare a lyophilized trabectedin formulation. The appearance, water content, reconstitution and pH were investigated. The change of related substances after lyophilization and the placement stability under accelerated conditions (25° C. 60% RH) and long-term conditions (2-8° C.) were measured.
The above lyophilized formulations were stored under accelerated conditions (25° C. 60% RH), and the related substances and water content were measured at different time points.

For data set [3] the following is noted: cited from earlier work.
The conditions of data set [4]: cited from earlier work. The source holds these as a separate data set.

With `COc1cc2c(cc1O)CCN[C@]21CS[C@@H]2c3c(OC(C)=O)c(C)c4c(c3[C@H](COC1=O)N1[C@@H]2[C@H]2c3c(cc(C)c(OC)c3O)C[C@@H]([C@@H]1O)N2C)OCO4` [API, Trabectedin], in data set [1], the “ET-745 (%)” value came to 0.25%, the “ET-759B (%)” value is 0.31% and the “Total impurities (%)” value turned out to be 2.56%. In data set [2], the “ET-745 (%)” value was 0.25%, the “ET-759B (%)” value was found to be 0.31% and the “Total impurities (%)” value is on record as 2.56%. Besides, the “solubility in pure water” value in data set [3] is on record as “limited”. In data set [4] (refrigerated at 5° C.), the storage time is at most 1 month. Besides, the thermal stability entry in data set [4] (room temperature (25° C.)) is “rapidly degrades”.

The values are drawn from patent US10610529B2, “Trabectedin-inclusive injectable pharmaceutical composition for gastrointestinal external use and a method for manufacturing the same” (priority 2016, dated 2020).
